Measured values from patent US4657902A, “Therapeutic use of tin mesoporphyrin” (The Rockefeller University, priority 1985, dated 1987).
Like-named read-outs stand apart in the source and are kept apart here.

How the values were obtained:
[1] = biliary output of bilirubin, heme and iron in rats; assay type: in vivo, rat
Protocol: It has been observed that when heme is administered alone to animals such as rats, a large output of biliary bilirubin (mono- and diglucuronide forms) occurs, with a slight output of excess heme.
It is therefore clear that the administration of SnMP to mammals increases the biliary excretion of excess heme and thus of its contained iron atom as well. They make it clear also that the excess heme which accumulates when the rate of bilirubin production is decreased by the administration of SnMP is excreted in the bile and not stored in tissues. More particularly, they make it clear that the administration of SnMP to mammals suffering acute or chronic excess of heme or iron will increase the rate at which such heme or iron will be excreted into the intestinal contents.

serum bilirubin [2] = test: serum bilirubin in newborn rats after a single subcutaneous injection at birth
serum bilirubin [3] = test: experimental postnatal hyperbilirubinemia produced by ALA in 7 day old rats, serum bilirubin; assay type: in vivo, rat; conditions: single dose 1 μmol/kg body weight at 0 time, 24 hours
Protocol: (§1) The efficacy of SnMP for controlling hyperbilirubinemia was also examined in a model of experimental postantal hyperbilirubinemia in the rat utilizing the heme precursor […] (ALA) to produce jaundice 7 days after birth (Drummond & Kappas, J. Clin. Invest., 74, 142-149, 1984). AlA (50 μmol/100g body weight) administered to suckling 7 day old neonates at 0,4 and 8 hours produced an approximately 3 fold increase in serum bilirubin levels 24 hours after the initial injection (FIG. 3). […] Heme oxygenase was assayed as earlier described (J. Biol. Chem., 253, 2321-2326, 1978).

heme oxygenase = molecular target: T1, heme oxygenase (Rattus norvegicus, UniProt P06762); test: rat spleen heme oxygenase incubation, in vitro inhibition; assay type: biochemical; conditions: for Km: normal Km 3.64 μM, read-out: Km for degradation of heme by heme oxygenase to bile pigment
T1 construct: rat spleen - heme oxygenase incubation mixtures; from tissue; host or cells: rat spleen
T1 sequence (P06762 1-289): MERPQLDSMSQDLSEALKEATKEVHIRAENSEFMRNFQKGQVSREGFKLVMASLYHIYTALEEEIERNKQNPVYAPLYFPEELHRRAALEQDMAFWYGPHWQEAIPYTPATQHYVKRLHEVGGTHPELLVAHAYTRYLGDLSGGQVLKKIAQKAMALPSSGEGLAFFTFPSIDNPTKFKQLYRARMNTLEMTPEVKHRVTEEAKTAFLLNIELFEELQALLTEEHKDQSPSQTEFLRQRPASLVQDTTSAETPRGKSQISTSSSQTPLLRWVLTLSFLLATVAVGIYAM

hepatic heme oxygenase = hepatic heme oxygenase activity in ALA-treated 7 day old rats; assay type: in vivo, rat; conditions: single dose 1 μmol/kg body weight
Protocol: as §1

[4] = test system: liver tryptophan pyrrolase; test: liver tryptophan pyrrolase activity and heme saturation after parenteral administration to rats; assay type: in vivo, rat; conditions: 1 μmol/kg s.c.
Protocol: With adults afflicted with sickle cell anemia or another condition resulting in increased bilirubin concentration, the dosage unit is normally smaller since in all but the most acute situations, the bilirubin concentration is not as high as in neonates. The standard dosage with adults will normally be from about 2 to 5 mg/kg of body weight. […] In this study SnMP was administered subcutaneously at a dosage level of 1 μmol/kg of body weight to male Sprague-Dawley rats (180-200g). Control animals received an equivalent volume of aqueous isotonic saline. Tissue preparation of liver fractions for enzymic assays were conducted as described by Drummond and Kappas. Proc. Natl. Acad. Sci. USA. 78:6466-6470 (1981). Tryptophan pyrrolase activity was determined both in the absence (holoenzyme) and the presence (total enzyme) of added heme ([…]). The latter enzyme activity was calculated from the linear phase of kynurenine formation. The percent heme saturation for tryptophan pyrrolase was expressed as the ratio of holoenzyme to total enzyme (×100 ). Each data point in the figure represents the mean value of determinations in 3 to 6 animals.

## tin mesoporphyrin [SnMP]
[1]; bile duct cannulated rats
  output of biliary iron: increase in output of biliary iron
[1]; rats, SnMP administered with heme
  biliary bilirubin output: the bilirubin peak will decline
Serum bilirubin [2]; 1 μmol/kg body weight s.c. once at birth
  effect on the increase in serum bilirubin 24 hours after birth: entirely prevented
Serum bilirubin [2]; compared with SnPP
  effectiveness in vivo in lowering plasma bilirubin / suppressing neonatal jaundice relative to SnPP: 5-10 times
Serum bilirubin [3]
  effect on the increase in serum bilirubin produced by ALA: substantially diminished
Heme oxygenase; 0.025 and 0.05 μM SnMP
  inhibition of heme oxygenase activity: marked competitive inhibition
Heme oxygenase; SnMP 0.025 μM
  Km: 11.1 µM
Heme oxygenase; SnMP 0.05 μM
  Km: 18.2 µM
Heme oxygenase; compared with SnPP
  in vitro ability to inhibit the production of bilirubin relative to SnPP: just about as effective in this regard as SnPP
Heme oxygenase; rat spleen heme oxygenase, read-out: inhibition constant Ki for the inhibition of the conversion of heme to bilirubin by heme oxygenase
  Ki: 13 nM
Hepatic heme oxygenase
  effect on the increase in hepatic heme oxygenase activity associated with ALA administration: prevented the increase
[4]; male Sprague-Dawley rats, in two hours
  percent heme saturation of tryptophan pyrrolase: approximately 80%
[4]; rats, compared with SnPP
  duration of the initial high tryptophan pyrrolase activity relative to SnPP: maintained for a more extended period of time
